# Experimental data published in US9974832B2, “Therapeutic effects of bryostatins, bryologs, and other related substances on head trauma-induced memory impairment and brain injury” (Cognitive Research Enterprises, Inc., priority 2007, dated 2018).
# pKi: −log10 of the molar value.
# Experiments:
# PKC [1] = conditions: read-out: affinity for PKC, A-ring bryologs; cited from earlier work
# tumor promotion = conditions: cited from earlier work
# [2] = tested on: head trauma-induced brain injury and memory impairment; experiment: minimal traumatic brain injury in mice, Morris Water Maze; format: in vivo; conditions: treatment started one hour after head trauma
# Description: Minimal traumatic brain injury (TBI) was produced in mice by a concussive event using a 30 g mass. One hour post trauma, the mice received 20 or 30 μg bryostatin per kg doses by intraperitoneal injection. The injections were repeated twice weekly for a total of 5 treatments. The effects on learning and memory of bryostatin treatment in treated animals was tested in the Morris Water Maze.
# The platform was removed and the animals were tested for how long they searched the correct quadrant versus the incorrect quadrants. In the passive avoidance procedure the animal remembers the distinctive environment in which a mild electric shock is delivered and avoids it on a second occasion.
# Minimal traumatic brain injury (TBI) was produced in mice by a concussive event using a 30 g mass. One hour post trauma, the mice received 30 μg bryostatin per kg doses by intraperitoneal injection. The injections were repeated twice weekly for a total of 5 treatments. The escape latencies in a Morris Water Maze of mice treated with bryostatin after minimal TBI were compared to animals with minimal TBI, control animals receiving no TBI or bryostatin, and animals receiving bryostatin only.
# Minimal traumatic brain injury (TBI) was produced in mice by a concussive event using a 30 g mass. One hour post trauma, the mice received 20 μg bryostatin per kg doses by intraperitoneal injection. […]
# [3] = in vivo; cited from earlier work
# NCI 60 cell line screen = conditions: cited from earlier work
# [4] = tested on: squamous cell carcinoma and melanoma; conditions: used topically; cited from earlier work
# [5] = compared with phorbol; cited from earlier work
# PKC [6] = conditions: K562 cells; cited from earlier work
# [7] = tested on: cyclin dependent kinase 2 (Cdk2); conditions: at 5 ng/ml; cited from earlier work
# [8] = tested on: murine leukemias and solid tumors; conditions: cited from earlier work
# PKCϵ = target: T1, PKCϵ (Homo sapiens, UniProt Q02156); conditions: cited from earlier work
# T1 sequence (Q02156 1-737): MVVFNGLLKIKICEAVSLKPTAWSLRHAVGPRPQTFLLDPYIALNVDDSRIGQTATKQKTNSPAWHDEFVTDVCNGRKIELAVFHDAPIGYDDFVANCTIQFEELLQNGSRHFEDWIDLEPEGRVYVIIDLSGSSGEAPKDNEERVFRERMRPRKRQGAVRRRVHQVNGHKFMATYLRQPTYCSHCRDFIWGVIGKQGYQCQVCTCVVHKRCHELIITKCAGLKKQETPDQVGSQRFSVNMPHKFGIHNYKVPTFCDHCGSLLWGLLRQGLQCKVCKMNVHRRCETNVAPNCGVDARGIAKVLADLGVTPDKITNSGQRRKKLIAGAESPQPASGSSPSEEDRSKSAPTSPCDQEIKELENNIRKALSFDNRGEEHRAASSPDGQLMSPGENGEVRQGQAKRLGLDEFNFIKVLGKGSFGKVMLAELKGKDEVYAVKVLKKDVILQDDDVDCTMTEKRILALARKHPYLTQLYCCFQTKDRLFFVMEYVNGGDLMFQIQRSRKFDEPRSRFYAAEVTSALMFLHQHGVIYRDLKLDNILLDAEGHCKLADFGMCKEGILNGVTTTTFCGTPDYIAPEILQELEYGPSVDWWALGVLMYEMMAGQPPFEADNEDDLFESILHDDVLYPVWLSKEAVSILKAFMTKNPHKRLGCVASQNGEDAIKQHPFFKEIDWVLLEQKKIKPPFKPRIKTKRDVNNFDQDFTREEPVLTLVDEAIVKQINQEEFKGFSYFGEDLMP
# [9] = (−)-enantiomer; cited from earlier work
compound,measurement,setting,value
CCCCCCCC(=O)OC1C(=CC(=O)OC)CC2CC(CO)OC(=O)CC(O)CCOC(CCCc3ccc(Br)cc3)CC3CCOC(C=CC(C)(C)C1(O)O2)O3 (stereo not drawn) [bryolog 5],pKi,PKC [1],8.72
"CCCC=CC=CC(=O)OC1C(=CC(=O)OC)CC2CC(C(C)O)OC(=O)CC(O)CC3CC(OC(C)=O)C(C)(C)C(O)(CC4CC(=CC(=O)OC)CC(C=CC(C)(C)C1(O)O2)O4)O3 (stereo not drawn) [Bryostatin 1, bryostatin-1]",tumor promotion activity,tumor promotion,devoid of tumor promotion activity
same,therapeutic effect on brain injury and memory impairment induced with head trauma,[2],therapeutic value against brain injury and memory impairment
same,main adverse reaction in humans,[3],myalgia
same,tolerability of doses in humans,[3],well tolerated in humans
CC1=CC[C@H](C)C(C)(C)[C@@H]1/C=C/C(C)=C/CC[C@@]1(CO)[C@H](CCCO)/C(=C(/C)C=O)CC[C@]1(C)O [Iripallidal],GI50 (concentration required to inhibit growth by 50%),NCI 60 cell line screen,micromolar to nanomolar range
C/C=C(/C)C(=O)O[C@H]1C(C)=C[C@]23C(=O)[C@@H](C=C(CO)[C@@H](O)[C@]12O)[C@H]1[C@@H](C[C@H]3C)C1(C)C [Ingenol-3-angelate],antitumor activity,[4],possesses antitumor activity
Ingenol,toxicity,[5],much less toxicity
CCCCCCCC(=O)OC1C(=CC(=O)OC)CC2CC(CO)OC(=O)CC(O)CCOC(c3ccccc3)CC3CCOC(C=CC(C)(C)C1(O)O2)O3 (stereo not drawn) [bryolog 4],pKi,PKC [1],8.64
C=C(C)[C@]12C[C@@H](COC(=O)c3ccccc3)[C@@]34OC5(O[C@@H]1[C@@H]3C1O[C@]1(CO)[C@@H](O)[C@@]1(O)[C@H]4[C@@H](C(C)CCCCCC[C@@H]5O)C(C)[C@@H]1OC(=O)c1ccccc1)O2 (stereo partly drawn) [Gnidimacrin],concentration at which it acts as a PKC activator,PKC [6],≈ 3 nM
same,inhibition of Cdk2,[7],100%
same,concentrations with potent antitumor activity,[8],0.1 to 1 nM
CCCCCCCC(=O)OC1C(=CC(=O)OC)CC2CC(CO)OC(=O)CC(O)CCOC(C(C)(C)C)CC3CCOC(C=CC(C)(C)C1(O)O2)O3 (stereo not drawn) [bryolog 3],pKi,PKC [1],8.19
"CCCCCC1CC1CC1CC1CCCCCCCC(=O)O (stereo not drawn) [DCP-LA, 2-[(2-pentylcyclopropyl)methyl]cyclopropaneoctanoic acid]",concentration of maximal effect,PKCϵ,100 nM
CCCCCCCCc1ccc2c3c(c[nH]c13)C[C@@H](CO)NC(=O)[C@H](C(C)C)N2C [Octylindolactam V],metabolic stability,[9],greater metabolic stability
